Assay results published in ChEMBL document CHEMBL1129670, “Synthesis and structure-activity relationships of N-propyl-N-(4-pyridinyl)-1H-indol-1-amine (besipirdine) and related analogs as potential therapeutic agents for Alzheimer's disease” (J Med Chem, 1996).

Experiments:
Mus musculus [1] = species: Mus musculus; assay: Antagonistic activity against Scopolamine induced behavioral deficits in mice; 3/9; assay type: functional
Mus musculus [2] = assay: Antagonistic activity against Scopolamine induced behavioral deficits in mice at dose 0.02 mg/kg sc; assay type: functional; settings: route subcutaneous
Mus musculus [3] = assay: Antagonistic activity against Scopolamine induced behavioral deficits in mice at dose 0.04 mg/kg sc; assay type: functional; settings: route subcutaneous
Mus musculus [4] = assay: Antagonistic activity against Scopolamine induced behavioral deficits in mice at dose 0.08 mg/kg sc; assay type: functional; settings: route subcutaneous
[5] = target: Muscarinic acetylcholine receptor; assay type: cell membranes, Membrane
Description: Inhibition of [3H]quinuclidinyl benzilate (QNB) binding from rat forebrain membranes in the absence of Zn

[6] = target: Muscarinic acetylcholine receptor; assay type: cell membranes, Membrane; remark: listed apart in the source
Description: Inhibition of [3H]quinuclidinyl benzilate (QNB) binding from rat forebrain membranes in the presence of Zn

Acetylcholinesterase = target: T1, Acetylcholinesterase (Rattus norvegicus, UniProt P37136)
T1 sequence (P37136 whole entry): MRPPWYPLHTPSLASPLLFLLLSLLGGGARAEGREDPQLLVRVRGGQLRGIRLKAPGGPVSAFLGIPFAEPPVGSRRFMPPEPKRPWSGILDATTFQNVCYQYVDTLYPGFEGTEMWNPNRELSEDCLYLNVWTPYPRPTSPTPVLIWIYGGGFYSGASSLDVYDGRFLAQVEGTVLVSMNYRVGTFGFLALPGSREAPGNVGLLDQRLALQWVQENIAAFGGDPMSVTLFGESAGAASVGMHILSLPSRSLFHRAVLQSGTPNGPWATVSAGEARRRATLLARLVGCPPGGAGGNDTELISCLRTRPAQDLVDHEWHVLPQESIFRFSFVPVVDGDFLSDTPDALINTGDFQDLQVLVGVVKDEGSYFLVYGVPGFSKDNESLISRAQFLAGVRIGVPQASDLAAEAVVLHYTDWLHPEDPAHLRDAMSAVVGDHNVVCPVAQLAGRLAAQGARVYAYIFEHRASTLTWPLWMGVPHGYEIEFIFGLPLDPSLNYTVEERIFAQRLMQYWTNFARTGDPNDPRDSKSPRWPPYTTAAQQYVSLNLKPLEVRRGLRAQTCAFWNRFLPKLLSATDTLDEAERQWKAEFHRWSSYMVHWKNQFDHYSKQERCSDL
Description: Inhibitory activity against acetylcholinesterase in rat striatal preparation

[7] = target: Sodium-dependent noradrenaline transporter (Homo sapiens, UniProt P23975)
Sequence of Sodium-dependent noradrenaline transporter (P23975 whole entry): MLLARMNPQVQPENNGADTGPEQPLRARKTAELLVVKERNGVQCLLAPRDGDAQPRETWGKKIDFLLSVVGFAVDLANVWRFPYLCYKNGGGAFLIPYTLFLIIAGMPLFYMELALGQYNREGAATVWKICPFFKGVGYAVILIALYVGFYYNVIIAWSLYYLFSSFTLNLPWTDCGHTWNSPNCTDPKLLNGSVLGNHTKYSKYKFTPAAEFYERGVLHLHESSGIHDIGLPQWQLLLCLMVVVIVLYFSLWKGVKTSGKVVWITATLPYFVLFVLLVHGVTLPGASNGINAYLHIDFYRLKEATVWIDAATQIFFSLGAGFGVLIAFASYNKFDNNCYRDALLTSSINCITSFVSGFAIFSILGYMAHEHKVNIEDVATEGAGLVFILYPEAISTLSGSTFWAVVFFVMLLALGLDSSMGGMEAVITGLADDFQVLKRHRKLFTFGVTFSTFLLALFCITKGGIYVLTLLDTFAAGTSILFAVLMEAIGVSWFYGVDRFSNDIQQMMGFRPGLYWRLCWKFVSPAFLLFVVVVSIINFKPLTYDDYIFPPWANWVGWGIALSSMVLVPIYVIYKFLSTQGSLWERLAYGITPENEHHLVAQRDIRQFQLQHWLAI
Description: Inhibitory activity against norepinephrine (NE) uptake in rat whole brain synaptosome preparation

Mus musculus [8] = species: Mus musculus; assay: animal or person
Description: Effective dose against administration in mice

Mus musculus [9] = assay: Antagonistic activity against Scopolamine induced behavioral deficits in mice at dose 0.16 mg/kg sc; assay type: functional; settings: route subcutaneous
[10] = target: T2, Adrenergic receptor alpha-2 (Rattus norvegicus, UniProt P22086+P19328+P22909); assay: Inhibitory activity against [3H]-idazoxan binding to Alpha-2 adrenergic receptor in rat cortex
T2 sequence (P22086 whole entry): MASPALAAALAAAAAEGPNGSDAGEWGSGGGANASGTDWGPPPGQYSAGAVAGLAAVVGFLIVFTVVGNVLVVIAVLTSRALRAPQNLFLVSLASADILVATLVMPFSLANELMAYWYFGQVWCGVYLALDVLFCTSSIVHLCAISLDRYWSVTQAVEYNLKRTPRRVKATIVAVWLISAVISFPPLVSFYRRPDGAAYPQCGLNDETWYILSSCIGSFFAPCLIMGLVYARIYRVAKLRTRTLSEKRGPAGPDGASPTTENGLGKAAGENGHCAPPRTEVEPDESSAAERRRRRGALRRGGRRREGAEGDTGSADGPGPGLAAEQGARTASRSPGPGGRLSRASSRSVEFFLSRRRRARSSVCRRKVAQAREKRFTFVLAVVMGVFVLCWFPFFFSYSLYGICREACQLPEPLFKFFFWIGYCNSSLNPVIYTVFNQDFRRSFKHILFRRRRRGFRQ
T2 sequence (P19328 whole entry): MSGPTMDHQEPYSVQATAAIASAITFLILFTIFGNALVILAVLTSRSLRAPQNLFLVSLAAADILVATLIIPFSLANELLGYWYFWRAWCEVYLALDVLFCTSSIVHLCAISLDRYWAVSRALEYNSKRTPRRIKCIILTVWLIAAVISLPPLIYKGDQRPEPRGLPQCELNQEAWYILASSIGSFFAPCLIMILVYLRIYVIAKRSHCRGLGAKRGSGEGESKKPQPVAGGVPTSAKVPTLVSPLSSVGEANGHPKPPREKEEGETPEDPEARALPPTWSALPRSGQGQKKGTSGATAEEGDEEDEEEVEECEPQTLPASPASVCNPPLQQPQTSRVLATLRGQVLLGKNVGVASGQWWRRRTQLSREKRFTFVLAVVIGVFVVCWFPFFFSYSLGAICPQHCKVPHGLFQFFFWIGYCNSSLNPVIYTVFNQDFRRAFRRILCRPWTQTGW
T2 sequence (P22909 whole entry): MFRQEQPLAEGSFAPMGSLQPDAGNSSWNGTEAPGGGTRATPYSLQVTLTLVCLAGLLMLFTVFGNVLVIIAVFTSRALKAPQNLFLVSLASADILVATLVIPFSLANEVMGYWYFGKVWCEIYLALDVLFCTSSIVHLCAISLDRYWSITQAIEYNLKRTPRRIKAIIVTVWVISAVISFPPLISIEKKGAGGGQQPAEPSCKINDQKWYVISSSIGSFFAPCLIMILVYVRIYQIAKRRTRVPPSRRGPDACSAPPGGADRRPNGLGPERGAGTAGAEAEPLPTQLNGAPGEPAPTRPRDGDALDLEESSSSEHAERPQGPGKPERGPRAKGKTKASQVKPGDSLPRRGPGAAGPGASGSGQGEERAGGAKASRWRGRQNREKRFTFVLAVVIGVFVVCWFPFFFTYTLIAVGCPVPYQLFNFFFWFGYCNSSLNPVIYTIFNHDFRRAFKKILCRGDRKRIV

[11] = target: T2, Adrenergic receptor alpha-2; assay: Inhibitory activity against [3H]yohimbine binding to Alpha-2 adrenergic receptor in rat cortex
[12] = target: T3, Muscarinic acetylcholine receptor M2 (Rattus norvegicus, UniProt P10980); assay: Inhibitory activity against [3H]N-methyl-scopolamine in rat Muscarinic acetylcholine receptor M2 cerebellum in the presence GPP(NH)P; assay type: tissue-based
T3 sequence (P10980 whole entry): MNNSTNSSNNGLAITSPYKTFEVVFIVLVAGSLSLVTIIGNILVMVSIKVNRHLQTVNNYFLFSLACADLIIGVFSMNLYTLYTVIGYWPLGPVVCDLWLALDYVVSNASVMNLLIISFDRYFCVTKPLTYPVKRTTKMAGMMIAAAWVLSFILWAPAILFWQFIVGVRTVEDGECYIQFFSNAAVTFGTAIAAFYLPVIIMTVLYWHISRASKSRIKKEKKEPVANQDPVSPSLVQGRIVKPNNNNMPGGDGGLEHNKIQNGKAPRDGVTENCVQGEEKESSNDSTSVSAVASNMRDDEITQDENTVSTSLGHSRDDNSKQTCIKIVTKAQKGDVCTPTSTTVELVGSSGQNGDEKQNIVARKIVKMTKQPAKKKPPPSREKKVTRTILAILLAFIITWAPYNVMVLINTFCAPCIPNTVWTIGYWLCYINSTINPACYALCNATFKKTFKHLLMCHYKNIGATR

Glutamate NMDA receptor = assay: Inhibitory activity against [3H]-CPP binding to NMDA receptor in rat cortex
Rattus norvegicus = species: Rattus norvegicus; assay: Inhibitory activity against [3H]norepinephrine (NE) uptake in rat hypothalamus; assay type: functional

Row | Structure (SMILES) | Antagonism (Mus musculus [1]) | Response (Mus musculus [2]) | Response (Mus musculus [3]) | Response (Mus musculus [4]) | IC50 [5] | IC50 [6] | IC50 (Acetylcholinesterase) | IC50 [7] | ED50 (Mus musculus [8]) | Response (Mus musculus [9]) | IC50 [10] | IC50 [11] | IC50 [12] | IC50 (Glutamate NMDA receptor) | IC50 (Rattus norvegicus)
1 | CN(c1ccncc1)n1ccc2ccccc21 | 3 | 33% | 53% | 33% | 9 µM | 5.1 µM | > 100 µM | 1 µM | 3.5 mg/kg | – | – | – | – | – | –
2 | c1ccc2c(c1)ccn2Nc1ccncc1 | 3 | 27% | – | 20% | 40 µM | 16 µM | > 100 µM | 2.5 µM | 3 mg/kg | 23% | – | – | – | – | –
3 | CCCN(c1ccncc1)n1ccc2ccccc21 [BESIPIRDINE] | – | 24% | 30% | 33% | 3 µM | 0.94 µM | > 100 µM | 0.43 µM | 3.1 mg/kg | 27% | 0.47 µM | 0.25 µM | 0.65 µM | > 20 µM | 0.27 µM
